{
  "source": "patent US20230233584A1",
  "about": "“EXTENDED RELEASE 5-HT RECEPTOR AGONISTS FOR NEUROLOGICAL CONDITIONS” (Diamond Therapeutics Inc., priority 2020, published 2023)",
  "system": "Long Evans rats",
  "assay": "Progressive ratio (PR) test, Study B",
  "format": "in vivo",
  "conditions": "0.025 mg/kg, rats",
  "description": "General: Experiments were conducted to test psilocybin doses in the range of 0.01-0.2 mg/kg psilocybin administered S.C. across progressive ratio (PR) and 5-choice serial reaction time task (5CSRTT) to examine the effect of psilocybin on endophenotypes of motivation and attention. In each study, a population of out-bred Long Evans rats was first tested as a group for response to the PR and 5CSRTT. Each group was then divided into subgroups by tertiles according to performance, and then exposed to various dose levels immediately prior to re-testing at various psilocybin dose levels.\nThe PR test is used to answer how willing the test subject is to work for food (i.e. test of motivation). A single 45 mg food pellet (i.e. reinforcer) is made available to the test animal based on lever press response. To obtain each successive pellet, the animal must make increasingly more lever presses. Typically, a progression of 2, 4, 6, 9, 12, 15, 20, 25, 32, 40, 50, 62, 77, 95, 118, etc. is used, derived from the equation:\nratio=[5×e^(0.2×reinforcer #)−5]\nAt some point, the animal gives up as the motor demands to obtain a single pellet are not deemed worthwhile (i.e. animal reaches “break point” defined as animal's failure to earn a food pellet in 20 minutes).\nStudy B: Based on Study 1 outcome, a follow-up PR study was conducted utilizing a larger cohort size (72 rats total), and incorporating a lower dose of psilocybin (0.025 mg/kg SC) (FIG. 2C and FIG. 2D). […] Separation of rats based on the lowest average break point recorded over the 7 days prior to testing identified a “low responder” subgroup of N=24 rats. […] There was no treatment effect on session duration (F3,69=2.4; P=0.07, NS), although there was trend for this to be increased at the 0.1 mg/kg dose (Veh: 15.1+2.0 min; Psilo 0.1 mg/kg: 18.7+2.5 min).",
  "data": [
    {"smiles": "CCN(CC)C(=O)[C@@H]1C=C2c3cccc4[nH]cc(c34)C[C@H]2N(C)C1", "note": "[LSD, D-lysergic acid diethylamide]", "values": [
      {"measurement": "effect in PR test at lowest dose tested", "value": "no significant effect"}
    ]}
  ]
}
